Reference: patent US20170095573A1, “METHODS AND COMPOSITIONS FOR TREATING ALLERGY AND INFLAMMATORY DISEASES” (Baylor Research Institute, priority 2014, published 2017)

Key:
[1] = test system: dendritic cells and CD4+ T cells; allergic patient PBMCs; assay: Th2 responses after curdlan activation of DCs / allergic patient PBMCs; type: cell-based, human
[2] = test system: naïve CD4+ T cells co-cultured with TSLP-activated mDCs; assay: TSLP-activated mDC-induced CD4+ T cell responses (co-culture with naive CD4+ T cells, cytokine staining / supernatant); type: cell-based, human; details: 20 ug/ml, naïve CD4+ T cells 7 days, PMA/ionomycin 6 h, intracellular staining
Description: (FIG. 10A) Intracellular cytokine levels were analyzed by intracellular staining in cells stimulated with PMA/Ionomycin for 6 hours and with brefeldinA for 4 hrs. (FIG. 10B) Cell supernatant cytokine levels were measured by stimulating the cells with αCD3/CD28 beads for 48 hrs.
It was next tested whether anti-Dectin-1-Pam3 conjugate can indeed suppress TSLP-activated mDC-induced Th2 type T cell responses. 5×10^3 mDCs were cultured overnight with TSLP in the presence or absence of the same concentration (20 ug/ml) of anti-Dectin-1-Pam3 conjugate, combination of anti-Dectin-1 and Pam3, or Pam 3. 2×10^5 purified naïve CD4+ T cells were then added into the culture. After 7 days, T cells were stimulated for 6 h with PMA/ionomycin in the presence of brefeldin A. Cells were then stained for intracellular expression of IL-13 (Th2 type cytokine) and IFNγ (Th2 type cytokine).
Next, the Th2-type T cells were tested. mDCs were first primed with 40 ng/mL TSLP and either αdectin-1 or αDectin-1-pam3 at 20 ug/mL After 24 hrs, naïve CD4+ T cells are added to the mDCs and cultured for an additional 6 days. Intracellular cytokine levels were analyzed by intracellular staining in cells stimulated with PMA/Ionomycin for 6 hours and with brefeldinA for 4 hrs (FIG. 10A). Cell supernatant cytokine levels were measured by stimulating the cells with αCD3/CD28 beads for 48 hrs (FIG. 10B).

Compound | Antigen-specific TH2 responses ([1]; Flu HA1 antigen, DCs and CD4+ T cells, restimulation with HA-1-derived peptides) | Th2-type T cell responses ([1]; allergic patient PBMCs) | Percentage of IL-13+ cells ([1]; restimulation with PMA/Ionomycin, immunostaining) | Total TH2 responses ([1]; restimulation with PMA/Ionomycin, immunostaining for IL-13 and IL-5) | IL-13+CD4+ T cell responses [2] [%]
curdlan | decreased antigen-specific TH2 responses | significantly down-regulated Th2-type T cell responses | decreased significantly | downregulates total TH2 responses | –
CCCCCCCCCCCCCCCC(=O)N[C@@H](CSCC(COC(=O)CCCCCCCCCCCCCCC)OC(=O)CCCCCCCCCCCCCCC)C(=O)N[C@@H](CO)C(=O)N[C@@H](CCCCN)C(=O)N[C@@H](CCCCN)C(=O)N[C@@H](CCCCN)C(=O)N[C@@H](CCCCN)C(=O)O (mixture of isomers) [Pam3, N-Palmitoyl-S-[2,3-bis(palmitoyloxy)-(2RS)-propyl]-[R]-cysteinyl-[S]-seryl-[S]-lysyl-[S]-lysyl-[S]-lysyl-[S]-lysine] | – | – | – | – | 3.47
